Data: patent US20130053243A1, “PLANTS HAVING INCREASED TOLERANCE TO HERBICIDES” (BASF SE, priority 2010, published 2013)

What was measured:
Test in all cases: Greenhouse spray test, transgenic soybean T0 cuttings
Format in all cases: in vivo, Glycine max
[1] = system: transgenic soybean plants, event AV3641 (AtHPPD); settings: two weeks after treatment, scale 0 (no injury) to 9 (complete death)
Method: (§1) Transgenic plants expressing heterologous HPPD or HST enzymes are tested for tolerance against coumarone-derivative herbicides in greenhouse experiments.
(§2) For post emergence treatment, the test plants are first grown to a height of 3 to 15 cm, depending on the plant habit, and only then treated with the herbicides. For this purpose, the test plants are either sown directly and grown in the same containers, or they are first grown separately and transplanted into the test containers a few days prior to treatment.
(§3) For testing of T0 plants, cuttings can be used. In the case of soybean plants, an optimal shoot for cutting is about 7.5 to 10 cm tall, with at least two nodes present. Each cutting is taken from the original transformant (mother plant) and dipped into rooting hormone powder (indole-3-butyric acid, IBA). The cutting is then placed in oasis wedges inside a bio-dome. Wild type cuttings are also taken simultaneously to serve as controls. The cuttings are kept in the bio-dome for 5-7 days and then transplanted to pots and then acclimated in the growth chamber for two more days. Subsequently, the cuttings are transferred to the greenhouse, acclimated for approximately 4 days, and then subjected to spray tests as indicated. Depending on the species, the plants are kept at 10-25° C. or 20-35° C. The test period extends over 3 weeks. During this time, the plants are tended and their response to the individual treatments is evaluated. Herbicide injury evaluations are taken at 2 and 3 weeks after treatment. Plant injury is rated on a scale of 0 to 9, 0 being no injury and 9 being complete death.

[2] = system: transgenic soybean plants, event AV3653 (AtHPPD); settings: two weeks after treatment, scale 0 (no injury) to 9 (complete death)
Method: as §1, §2, §3

[3] = system: transgenic soybean plants, event AV3639 (AtHPPD); settings: two weeks after treatment, scale 0 (no injury) to 9 (complete death)
Method: as §1, §2, §3

[4] = system: transgenic soybean plants, event LG4564; settings: event LG4564, CrHPPD2 (head unclear), two weeks after treatment, scale 0 (no injury) to 9 (complete death)
Method: as §1, §2, §3

SMILES | Injury evaluation (plant injury rating) ([1]; 50 g/ha) | Injury evaluation (plant injury rating) ([1]; 100 g/ha) | Injury evaluation (plant injury rating) ([1]; 200 g/ha) | Injury evaluation (plant injury rating) ([2]; 50 g/ha) | Injury evaluation (plant injury rating) ([2]; 100 g/ha) | Injury evaluation (plant injury rating) ([2]; 200 g/ha) | Injury evaluation (plant injury rating) ([3]; 50 g/ha) | Injury evaluation (plant injury rating) ([3]; 100 g/ha) | Injury evaluation (plant injury rating) ([3]; 200 g/ha) | Injury evaluation (plant injury rating) ([4]; 50 g/ha) | Injury evaluation (plant injury rating) ([4]; 100 g/ha) | Injury evaluation (plant injury rating) ([4]; 200 g/ha) | Injury evaluation (plant injury rating) ([1]; 6.25 g/ha) | Injury evaluation (plant injury rating) ([1]; 12.5 g/ha) | Injury evaluation (plant injury rating) ([2]; 6.25 g/ha) | Injury evaluation (plant injury rating) ([2]; 12.5 g/ha) | Injury evaluation (plant injury rating) ([3]; 6.25 g/ha) | Injury evaluation (plant injury rating) ([3]; 12.5 g/ha) | Injury evaluation (plant injury rating) ([4]; 6.25 g/ha) | Injury evaluation (plant injury rating) ([4]; 12.5 g/ha)
CC1=NOC(c2c(Cl)ccc(C3=C(O)c4ncccc4N(CC(F)F)S3(=O)=O)c2Cl)C1 (centres unmarked) [Inhibitor 1, 3-[2,4-dichloro-3-(3-methyl-4,5-dihydroisoxazol-5-yl)phenyl]-1-(2,2-difluoroethyl)-2,2-dioxo-pyrido[3,2-c]thiazin-4-ol] | 2 | 2 | 3 | 3 | 3 | 3 | 3 | 2 | 3 | 3 | 3 | 4 | – | – | – | – | – | – | – | –
Cc1c(C(=O)c2cnn(C)c2O)ccc(S(C)(=O)=O)c1C1=NOCC1 [Topramezone, reference compound] | – | – | – | – | – | – | – | – | – | – | – | – | 4 | 4 | 2 | 3 | 4 | 5 | 3 | 4
